Data: ChEMBL document CHEMBL5614396, “Structure-Activity Relationship Studies in Benzothiadiazoles as Novel Vaccine Adjuvants” (J Med Chem, 2024)

Tests used:
THP-1 = assay: Vaccine adjuvant activity in human THP-1 cells expressing CD63-Turbo-luciferase and CD9-Emerald green fluorescent protein reporter assessed as extracellular vesicle release by measuring reporter activation at 10 uM incubated for 48 hrs by TurboLuc luciferase based chemiluminescence assay (reference value: 0%); type: functional
BMDC [1] = assay: Vaccine adjuvant activity in Balb/c mouse BMDC assessed as induction of Ca2+ influx at 10 uM by Fura-2/8-AM dye based fluorescence analysis (reference value: 0%); type: functional
BMDC [2] = assay: Vaccine adjuvant activity in Balb/c mouse BMDC assessed as increase in IL-12 production at 10 uM incubated for 20 hrs by ELISA (reference value: 1.35 +/-0.1 ng/ml); type: functional
[3] = Cytotoxicity against Balb/c mouse BMDC assessed as cell viability at 10 uM incubated for 20 hrs by MTT assay (reference value: 100 +/-0.6%); type: toxicity, cell-based; conditions: BMDC (bone marrow-derived dendritic cells), read-out: Activity

| Structure (SMILES) | Activity (THP-1) [%] | Activity (BMDC [1]) [%] | Activity (BMDC [2]) [ng/mL] | viability at 20 h, 10 µM [3] [%] |
| --- | --- | --- | --- | --- |
| CCOC(=O)c1c(NS(=O)(=O)c2cccc3nsnc23)sc(-c2cccnc2)c1C | 75.3 | 11.8 | 1.05 | 85.5 |
| Cc1sc(NS(=O)(=O)c2cccc3nsnc23)c(C(=O)OCCC(C)C)c1C | 141.6 | 262.4 | 2.87 | 81.2 |
| CCCOC(=O)c1c(NS(=O)(=O)c2cccc3nsnc23)sc(C)c1C | 156.3 | 147.4 | 3.5 | 140 |
| Cc1sc(NS(=O)(=O)c2cccc3nsnc23)c(C(=O)OC(C)(C)C)c1C | 128.8 | 136.7 | 3.17 | 118 |
| Cc1sc(NS(=O)(=O)c2cccc3nsnc23)c(C(=O)Oc2ccccc2)c1C | 39.8 | 85.3 | 1.58 | 107 |
| COC(=O)c1c(NS(=O)(=O)c2cccc3nsnc23)sc(C)c1C | 30.1 | 83.6 | 1.75 | 114 |
| CCOC(=O)c1c(NS(=O)(=O)c2cccc3ncccc23)sc(C)c1C | 0 | -13.3 | 1.1 | 117 |
| CCOC(=O)c1c(NS(=O)(=O)c2cccc3nsnc23)sc2c1CCN(C(=O)OC(C)(C)C)C2 | 100.4 | 79.2 | 2.27 | 104 |
| CCOC(=O)c1c(NS(=O)(=O)c2cccc3nsnc23)sc(C)c1CC | 112 | 117.6 | 2.27 | 100 |
| CCOC(=O)c1c(NS(=O)(=O)c2cccc3nsnc23)sc2c1CCNC2 | 0.1 | -35.3 | 0.72 | 94.8 |
| CCOC(=O)c1c(NS(=O)(=O)c2cccc3nn[nH]c23)sc(C)c1C | -0.7 | -9.6 | 2.11 | 102 |
| CCOC(=O)c1c(NS(=O)(=O)c2cccc3c2NCCN3)sc(C)c1C | 2.7 | 2 | 1.06 | 89.3 |
| CCOC(=O)c1c(NS(=O)(=O)c2cccc3cccnc23)sc(C)c1C | 60.4 | 99.7 | 2 | 110 |
| CCOC(=O)c1c(NS(=O)(=O)c2ccc3nsnc3c2)sc(C)c1C | 0.2 | -12.7 | 0.63 | 93.1 |
| CCOC(=O)c1ncsc1NS(=O)(=O)c1cccc2nsnc12 | 1.3 | -6.4 | 1.04 | 91.3 |
| CCOC(=O)c1c(NS(=O)(=O)c2cccc3nsnc23)sc(-c2ccccn2)c1C | 30.5 | 8.1 | 1.01 | 68.1 |
| CCOC(=O)c1c(NS(=O)(=O)c2cccc3ccncc23)sc(C)c1C | 3.6 | 4.1 | 1.12 | 87.5 |
| CCOC(=O)c1c(NS(=O)(=O)c2cccc3nsnc23)sc(-c2ccoc2)c1C | 114.4 | 94.7 | 1.18 | 82.8 |
| CCOC(=O)c1c(NS(=O)(=O)c2cccc3nsnc23)sc(-c2ccco2)c1C | 67.1 | 134.2 | 2.56 | 98.7 |

| Structure (SMILES) | Activity (THP-1) [%] | Activity (BMDC [1]) [%] | Activity (BMDC [2]) [ng/mL] | viability at 20 h, 10 µM [3] [%] |
| --- | --- | --- | --- | --- |
| CCOC(=O)c1ccsc1NS(=O)(=O)c1cccc2nsnc12 | 60.9 | 58.3 | 0.48 | 72.5 |
| CCOC(=O)c1c(NS(=O)(=O)c2cccc3nsnc23)sc2c1CCCC2 | 156.9 | 102.1 | 1.83 | 114 |
| CCOC(=O)c1c(N(C)S(=O)(=O)c2cccc3nsnc23)sc(C)c1C | -2 | -39.3 | 1.19 | 108 |
| CCc1noc(-c2c(NS(=O)(=O)c3cccc4nsnc34)sc(C)c2C)n1 | 0.4 | -3.1 | 1.71 | 65.9 |
| CCOC(=O)c1c(NS(=O)(=O)c2cccc3nsnc23)sc(C)c1-c1ccccc1 | 49.6 | 69.1 | 1.45 | 94.2 |
| Cc1sc(NS(=O)(=O)c2cccc3nsnc23)c(C(=O)OCc2ccccc2)c1C | 169.9 | 175.5 | 2.74 | 128 |
| CCOC(=O)c1c(C)csc1NS(=O)(=O)c1cccc2nsnc12 | 99 | 76.7 | 1.12 | 100 |
| CCOC(=O)c1c(NS(=O)(=O)c2ccc(Br)c3ccncc23)sc(C)c1C | 16.1 | -9.4 | 1.12 | 82.7 |
| CCOC(=O)c1nc(C)sc1NS(=O)(=O)c1cccc2nsnc12 | 1.7 | -7.9 | 0.92 | 93.3 |
| Cc1sc(NS(=O)(=O)c2cccc3nsnc23)c(C(=O)OC(C)C)c1C | 149.2 | 178.4 | 3 | 132 |
| CCOC(=O)c1c(C)cccc1NS(=O)(=O)c1cccc2nsnc12 | 1 | -14.2 | 1.14 | 88.8 |
| Cc1cc(NS(=O)(=O)c2cccc3nsnc23)sc1C | -0.9 | -11.4 | 1.4 | 113 |
| CCOC(=O)c1c(NS(=O)(=O)c2cccc3nsnc23)sc(Br)c1C | 81.1 | 102.9 | 1.03 | 104 |
| CCOC(=O)c1cc(C)ccc1NS(=O)(=O)c1cccc2nsnc12 | 10.8 | -11.5 | 1.22 | 60.1 |
| CCOC(=O)c1c(NS(=O)(=O)c2cccc3nc(C)[nH]c23)sc(C)c1C | 3.4 | -13.1 | 1.42 | 108 |
| CCOC(=O)c1c(NS(=O)(=O)c2cccc3nonc23)sc(C)c1C | 4.7 | -12.5 | 1.47 | 105 |
| Cc1sc(NS(=O)(=O)c2cccc3nsnc23)c(C(=O)O)c1C | -1.3 | -31.3 | 1.43 | 105 |
| CCNC(=O)c1c(NS(=O)(=O)c2cccc3nsnc23)sc(C)c1C | -0.6 | -28.3 | 1.7 | 100 |
